Data as given in patent US9663496B2, “AMPK-activating heterocyclic compounds and methods for using the same” (Rigel Pharmaceuticals, Inc., priority 2010, dated 2017).

Target: AMPK
Test: AMPK activation, enzyme-linked immunosorbent assay
Assay type: biochemical
Conditions: EC50 for AMPK activation, ELISA
Outline: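 Test compounds were added, and kinase activation was then detected by immunoassay following established kit procedures.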

SMILES | EC50 [nM]
CS(=O)(=O)c1ccc(CN2CCC(NC(=O)c3ccc(C(=O)N4CCC(Oc5ccc(C#N)cc5)CC4)nc3)CC2)cc1 [Compound 214, 6-(4-(4-cyanophenoxy)piperidine-1-carbonyl)-N-(1-(4-(methylsulfonyl)benzyl)piperidin-4-yl)nicotinamide] | > 10000
COc1ccc(C(=O)C2CCN(C(=O)c3ccc(C(=O)NC4CCN(Cc5ccc(S(C)(=O)=O)cc5)CC4)cn3)CC2)cc1 [Compound 215, 6-(4-(4-methoxybenzoyl)piperidine-1-carbonyl)-N-(1-(4-(methylsulfonyl)benzyl)piperidin-4-yl)nicotinamide] | > 10000
CS(=O)(=O)Nc1ccc(CN2CCC(NC(=O)c3ccc(C(=O)N4CCC(C(=O)c5ccc(F)cc5F)CC4)nc3)CC2)cc1 [Compound 216, 6-(4-(2,4-difluorobenzoyl)piperidine-1-carbonyl)-N-(1-(4-(methylsulfonamido)benzyl)piperidin-4-yl)nicotinamide] | > 10000
CS(=O)(=O)Nc1ccc(CN2CCC(NC(=O)c3ccc(C(=O)N4CCC(Oc5ccc(C#N)cc5)CC4)nc3)CC2)cc1 [Compound 217, 6-(4-(4-cyanophenoxy)piperidine-1-carbonyl)-N-(1-(4-(methylsulfonamido)benzyl)piperidin-4-yl)nicotinamide] | > 10000
CS(=O)(=O)c1ccc(OC2CCN(C(=O)c3cnc(C(=O)NC4CCN(Cc5ccc(C#N)cc5)CC4)cn3)CC2)cc1 [Compound 218, N-(1-(4-cyanobenzyl)piperidin-4-yl)-5-(4-(4-(methylsulfonyl)phenoxy)piperidine-1-carbonyl)pyrazine-2-carboxamide] | < 500
N#Cc1ccc(CN2CCC(NC(=O)c3cnc(C(=O)N4CCC(C(=O)c5ccc(N6CCCC6)cc5)CC4)cn3)CC2)cc1 [Compound 219, N-(1-(4-cyanobenzyl)piperidin-4-yl)-5-(4-(4-(pyrrolidin-1-yl)benzoyl)piperidine-1-carbonyl)pyrazine-2-carboxamide] | < 500
CN1CCN(c2ccc(C(=O)C3CCN(C(=O)c4cnc(C(=O)NC5CCN(Cc6ccc(C#N)cc6)CC5)cn4)CC3)cc2)CC1 [Compound 220, N-(1-(4-cyanobenzyl)piperidin-4-yl)-5-(4-(4-(4-methylpiperazin-1-yl)benzoyl)piperidine-1-carbonyl)pyrazine-2-carboxamide] | < 500
CS(=O)(=O)c1ccc(C(=O)C2CCN(C(=O)c3ccc(C(=O)NC4CCN(Cc5ccc(C#N)cc5)CC4)cn3)CC2)cc1 [Compound 221, N-(1-(4-cyanobenzyl)piperidin-4-yl)-6-(4-(4-(methylsulfonyl)benzoyl)piperidine-1-carbonyl)nicotinamide] | 1000 to 5000
CS(=O)(=O)c1ccc(C(=O)C2CCN(C(=O)c3ccc(C(=O)NC4CCN(Cc5ccc(F)cc5)CC4)cn3)CC2)cc1 [Compound 222, N-(1-(4-fluorobenzyl)piperidin-4-yl)-6-(4-(4-(methylsulfonyl)benzoyl)piperidine-1-carbonyl)nicotinamide] | 1000 to 5000
COc1ccc(CN2CCC(NC(=O)c3ccc(C(=O)N4CCC(C(=O)c5ccc(S(C)(=O)=O)cc5)CC4)nc3)CC2)cc1 [Compound 223, N-(1-(4-methoxybenzyl)piperidin-4-yl)-6-(4-(4-(methylsulfonyl)benzoyl)piperidine-1-carbonyl)nicotinamide] | 1000 to 5000
CS(=O)(=O)c1ccc(C(=O)C2CCN(C(=O)c3ccc(C(=O)Nc4ccc(Oc5ccc(F)cc5)nc4)cn3)CC2)cc1 [Compound 224, N-(6-(4-fluorophenoxy)pyridin-3-yl)-6-(4-(4-(methylsulfonyl)benzoyl)piperidine-1-carbonyl)nicotinamide] | < 500
CS(=O)(=O)c1ccc(C(=O)C2CCN(C(=O)c3ccc(C(=O)NC4CCN(Cc5ccc(F)cc5)CC4)nc3)CC2)cc1 [Compound 225, N-(1-(4-fluorobenzyl)piperidin-4-yl)-5-(4-(4-(methylsulfonyl)benzoyl)piperidine-1-carbonyl)picolinamide] | < 500
CS(=O)(=O)c1ccc(OC2CCN(C(=O)c3ccc(C(=O)NC4CCN(Cc5ccc(F)cc5)CC4)nc3)CC2)cc1 [Compound 226, N-(1-(4-fluorobenzyl)piperidin-4-yl)-5-(4-(4-(methylsulfonyl)phenoxy)piperidine-1-carbonyl)picolinamide] | < 500
CS(=O)(=O)c1ccc(OC2CCN(C(=O)c3ccc(C(=O)NC4CCN(Cc5ccc(C#N)cc5)CC4)nc3)CC2)cc1 [Compound 227, N-(1-(4-cyanobenzyl)piperidin-4-yl)-5-(4-(4-(methylsulfonyl)phenoxy)piperidine-1-carbonyl)picolinamide] | < 500

More lines, now with the values ahead:

EC50 [nM] | SMILES
< 500 | CS(=O)(=O)c1ccc(C(=O)C2CCN(C(=O)c3ccc(C(=O)NC4CCN(Cc5ccc(C#N)cc5)CC4)nc3)CC2)cc1 [Compound 228, N-(1-(4-cyanobenzyl)piperidin-4-yl)-5-(4-(4-(methylsulfonyl)benzoyl)piperidine-1-carbonyl)picolinamide]
1000 to 5000 | CS(=O)(=O)c1ccc(C(=O)C2CCN(C(=O)c3ccc(C(=O)NC4CCN(Cc5ccc(N6CCCC6)cc5)CC4)cn3)CC2)cc1 [Compound 229, 6-(4-(4-(methylsulfonyl)benzoyl)piperidine-1-carbonyl)-N-(1-(4-(pyrrolidin-1-yl)benzyl)piperidin-4-yl)nicotinamide]
500 to 1000 | CS(=O)(=O)c1ccc(OC2CCN(C(=O)c3ccc(C(=O)NC4CCN(Cc5ccc(N6CCCC6)cc5)CC4)cn3)CC2)cc1 [Compound 230, 6-(4-(4-(methylsulfonyl)phenoxy)piperidine-1-carbonyl)-N-(1-(4-(pyrrolidin-1-yl)benzyl)piperidin-4-yl)nicotinamide]
< 500 | CS(=O)(=O)c1ccc(OC2CCN(C(=O)c3ccc(C(=O)Nc4ccc(Oc5ccc(F)cc5)nc4)nc3)CC2)cc1 [Compound 231, N-(6-(4-fluorophenoxy)pyridin-3-yl)-5-(4-(4-(methylsulfonyl)phenoxy)piperidine-1-carbonyl)picolinamide]
< 500 | CS(=O)(=O)c1ccc(C(=O)C2CCN(C(=O)c3ccc(C(=O)Nc4ccc(Oc5ccc(F)cc5)nc4)nc3)CC2)cc1 [Compound 232, N-(6-(4-fluorophenoxy)pyridin-3-yl)-5-(4-(4-(methylsulfonyl)benzoyl)piperidine-1-carbonyl)picolinamide]
< 500 | CS(=O)(=O)c1ccc(C(=O)C2CCN(C(=O)c3ccc(C(=O)NC4CCN(Cc5ccc(N6CCCC6)cc5)CC4)nc3)CC2)cc1 [Compound 233, 5-(4-(4-(methylsulfonyl)benzoyl)piperidine-1-carbonyl)-N-(1-(4-(pyrrolidin-1-yl)benzyl)piperidin-4-yl)picolinamide]
< 500 | COc1ccc(CN2CCC(NC(=O)c3ccc(C(=O)N4CCC(C(=O)c5ccc(S(C)(=O)=O)cc5)CC4)cn3)CC2)cc1 [Compound 234, N-(1-(4-methoxybenzyl)piperidin-4-yl)-5-(4-(4-(methylsulfonyl)benzoyl)piperidine-1-carbonyl)picolinamide]
< 500 | CS(=O)(=O)c1ccc(OC2CCN(C(=O)c3ccc(C(=O)Nc4ccc(Oc5ccc(F)cc5)nc4)cn3)CC2)cc1 [Compound 235, N-(6-(4-fluorophenoxy)pyridin-3-yl)-6-(4-(4-(methylsulfonyl)phenoxy)piperidine-1-carbonyl)nicotinamide]
